Reference: PMC5736767, “A Comparison of Drug Transport in Pulmonary Absorption Models: Isolated Perfused rat Lungs, Respiratory Epithelial Cell Lines and Primary Cell Culture” (Pharmaceutical Research, 2017)
Where two headings read alike, the source gives them in different places.

Experiments:
rat lungs = details: apparent first-order pulmonary absorption rate constant in rats in vivo, cited from earlier work
[1] = Absorptive (A to B) permeability in Calu-3 cell layers; details: human
in vitro [2] = details: male, Wistar, rat, pH 7.4
Description: (§1) Eight-week old male Wistar rats were obtained from Harlan UK Ltd. (Oxon, Oxfordshire). They were fed with a SDS RM1(E) maintenance diet (Special Diets Services Ltd., Essex). They were maintained at 20–21°C and 45–60% humidity with a 12 h light/dark cycle. All procedures performed on these animals were in accordance with regulations and established guidelines and were reviewed and approved by an Institutional Animal Care and Use Committee or through an ethical review process.
(§2) Rats were sacrificed with a lethal injection of pentobarbital (130 mg/kg body weight). As soon as they were unconscious, rats were secured in a supine position on a board inclined at approximately 45°. A midline incision was made from the neck to the abdomen using a scalpel blade and the rat was exsanguinated by severing the main abdominal vessels. The trachea was exposed and carefully pierced through one wall with a 21 G needle. A 3 cm long cannula made of a polyethylene tubing (PolyE 240, Harvard Apparatus Ltd., Edenbridge, UK) mounted on a blunt 21 G needle was introduced into the trachea. This was securely tied with two suture threads (Silk black braid USP size 4.0, Harvard apparatus Ltd) and a 25 mm Dieffenbach’s bulldog artery clip (Scientific Laboratory Supplies Ltd., Nottingham, UK). The diaphragm was cut open, 0.5 mL of air was administered to the lungs to partly re-inflate them and the rib cage was laterally incised with scissors taking care not to damage the lung tissue.
(§3) After the thymus was removed, the heart was twisted slightly to expose the pulmonary artery and then stretched down using a Halstead’s artery clamp (Scientific Laboratory Supplies). An incision was made and the pulmonary artery was cannulated using a cannula similar to the tracheal one. This was secured with a micro aneurysm clip (Harvard apparatus Ltd). Lungs were perfused using a single pass constant flow rate of 8 mL/min. […] The pericardium was dissected free to allow free efflux of the perfusate and lungs were inflated manually with 1.5 mL air using a 10 mL syringe connected to the intratracheal cannula. As soon as the tissue blanched, the lungs were removed carefully from the chest cavity while maintaining the perfusion and a semi micro Rexaloy clamp (Fisher Scientific, Loughborough, UK) was used to suspend the lungs vertically above a funnel and beaker.
(§4) After isolation, the lungs were allowed to stabilize for 1–2 min. The syringe attached to the intratracheal cannula was then disconnected and 100 μL of the test solutions were instilled into the airways using a Hamilton microsyringe. Lungs were re-inflated with 1.5 mL of air and sampling was performed by collecting the effluent solution dripping from the left atrium at different time intervals for 90 min. Lung viability was assessed by visual inspection for any sign of oedema as well as by the profile of mannitol airway to perfusate transfer.
(§5) The cumulative percentage of drug transferred from the airways to the perfusate in 90 min was calculated as the fraction of the administered dose recovered in the perfusate. […] The apparent first-order absorption rate constant (KaIPL) was calculated as follows: KaIPL=ln2/t1/2abs
(§6) Absorption data were collected using 4 or 5 IPL preparations.

[3] = system: isolated perfused rat lungs; assay: in vitro
Description: as §1, §2, §3, §4, §5, §6

[4] = Table I panel of test compounds; source not stated; cited from earlier work
NHBE cell layers = assay: Absorptive (A to B) permeability in normal human bronchial epithelial (NHBE) cell layers; assay type: in vitro ADME
Description: (§7) NHBE were cultured in a cell culture flask using the BEGM bullet kit provided by the supplier until reaching 70–80% confluence. […] After 24 h, cells were cultured at an air interface. Cell layers were used for transport studies after 14 d in culture.

[5] = as above; assay type: in vitro ADME; details: human, apical to basolateral, 10 μM, pH 7.4, 2 h, mean ± SD (n = 3, n = 18 for mannitol)
Description: as §7

[6] = Absorptive (A to B) permeability in 16HBE14o- cell layers; details: human, pH 7.4
in vitro [7] = details: human, pH 7.4
16HBE14o- cell layers = details: pH 7.4
Calu-3 cell layers = assay: Absorptive (A to B) permeability in Calu-3 cell layers; details: Calu-3, apical to basolateral, 10 μM, pH 7.4, 2 h; mean ± SEM (n = 6, n = 36 for mannitol)
[8] = apparent first-order absorption rate constant = ln2/t1/2 abs, intratracheal instillation 100 μL, mean ± SD
[9] = male, Wistar, rat, 90 min, pH 7.4
[10] = pH 7.4, Papp, Calu-3, apical to basolateral, 10 μM, pH 7.4, 2 h, mean ± SEM (n = 6, n = 36 for mannitol)

Row | Compound | Ka in vivo (rat lungs; ref [22]) | % transferred to the perfusate in 90 min [3, 9] | Papp at 2 h, 10 μM [5] | Papp at 2 h, 10 μM [1, 10] | half-life (in vitro [2]) | KaIPL ([3]; male, Wistar, rat, pH 7.4) | Papp at 2 h, 10 μM (in vitro [7]) | other results
1 | COc1ccc(CC(C)NCC(O)c2ccc(O)c(NC=O)c2)cc1 (centres unmarked) [Formoterol] | 0.19 ^(1) min^−1 | – | – | – | – | – | – | Papp at 2 h, 10 μM ([1]; pH 7.4): 6.4 ± 0.3 ×10⁻⁶ cm/s; half-life (in vitro [2]; 100 μL): 30 ± 2 min; KaIPL [3, 8]: 0.023 ± 0.002 min⁻¹; % transferred to the perfusate in 90 min ([3]; cumulative fraction of administered dose recovered in perfusate at 90 min, mean ± SD): 46 ± 7%; Log P [4]: 1.1
2 | CN(C)CCCN1c2ccccc2CCc2ccccc21 [Imipramine] | 0.53 ^(1) min^−1 | 58 ± 9% | – | – | – | – | – | KaIPL [3, 8]: 0.071 ± 0.021 min⁻¹
3 | OC[C@@H](O)[C@@H](O)[C@H](O)[C@H](O)CO [Mannitol] | – | 51 ± 4% | 1.6 ± 0.5 ×10⁻⁶ cm/s | 0.5 ± 0.1 ×10⁻⁶ cm/s | 25 ± 5 min | 0.029 ± 0.005 min⁻¹ | – | Ka in vivo (rat lungs; ref [24]): 0.011 ^(3) min^−1; Papp (NHBE cell layers): 1.6 ± 0.5 x 10^−6, cm s^−1; Papp at 2 h, 10 μM [6]: 3.7 ± 0.5 ×10⁻⁶ cm/s; Papp at 2 h, 10 μM ([1]; pH 7.4, Papp, Calu-3, as stated in text): 0.48 ± 0.06 ×10⁻⁶ cm/s
4 | COCCc1ccc(OCC(O)CNC(C)C)cc1 (centres unmarked) [Metoprolol] | – | 65 ± 4% | 11.3 ± 0.7 ×10⁻⁶ cm/s | 10.3 ×10⁻⁶ cm/s | 3 ± 1 min | 0.260 ± 0.050 min⁻¹ | 24.5 ± 2.5 ×10⁻⁶ cm/s | –
5 | CC(C)NCC(O)COc1cccc2ccccc12 (centres unmarked) [Propranolol] | – | 47 ± 9% | 16.8 ± 3 ×10⁻⁶ cm/s | 7 ± 0.4 ×10⁻⁶ cm/s | – | 0.098 ± 0.016 min⁻¹ | 17.3 ± 0.8 ×10⁻⁶ cm/s | half-life (in vitro [2]; 100 μL): 7 ± 1 min
6 | CC(C)(C)NCC(O)c1cc(O)cc(O)c1 (centres unmarked) [Terbutaline] | 0.06 ^(1) min^−1 | 52 ± 12% | 13.8 ± 0.8 ×10⁻⁶ cm/s | 7.3 ± 0.4 ×10⁻⁶ cm/s | 19 ± 3 min | 0.037 ± 0.006 min⁻¹ | 19.3 ± 2 ×10⁻⁶ cm/s | Log P [4]: 0.1
7 | Dextran 10 K | – | – | – | – | – | – | – | Ka in vivo (rat lungs; ref [23]): 0.00007 ^(2) min^−1; Papp (NHBE cell layers; apical to basolateral, 10 μM, pH 7.4, 2 h, mean ± SD (n = 3, n = 18 for mannitol)): 0.7 ± 0.1 10^−6 cm/s; Papp (16HBE14o- cell layers): 1 ± 0.1 ×10⁻⁶ cm/s; Papp (Calu-3 cell layers): 0.2 ± 0.0 10^−6 cm/s; KaIPL [3]: 0.017 ± 0.002 min⁻¹; t1/2 abs ([3]; rat): 41 ± 6 min
